Data on 26 molecules can be found in patent publication US20250388602A1 (Genase Therapeutics B.V., priority 2022, published 2025).

One assay relates to MOLM-13 cells. Kind of assay: MOLM-13 cell viability (Assay B), Cell Titer-Glo. The class given is cell-based. The conditions noted are these: Homo sapiens, read-out: IC50 MOLM13 inhibition activity. The procedure: MOLM-13 cells (an acute myeloid leukemia cell line) were plated in RPMI supplied with 10% FBS and 1% Pen/Strep in 384-well plates at 1,000 cells per well on day 0. On day 1, treatment of the cells with compound (concentration range 10E-5 and 6E-12 M) was initiated in the presence or absence of 100 μM uridine. After 72 hours incubation of the cells with or without test compound, the number of viable cells per well was assessed by Cell Titer-Glo Luminescent Cell Viability Assay (Promega, Madison, WI, USA). […] Each condition was tested in duplicate and the potency of test compounds was determined from two independent experiments.
For orientation: ATP-based viability assays read luminescence as a measure of living cells.

In the next assay the target is recombinant human DHODH (Homo sapiens (Human), UniProt Q02127). In words: DHODH enzyme assay (Assay A), DCIP absorbance. The class given is biochemical. On the procedure:
Inhibition of human dihydroorotate dehydrogenase (DHODH) by example compounds as described herein was determined using one of two assays as described below.
DHODH enzyme assays were performed with 6 nM recombinant human DHODH (purified essentially as described by Walse et al., Biochemistry, 47, 8929-8936 (2008)). The reaction mixture consisted of 1 mM DL-dihydroorotic acid (#D7003, Sigma-Aldrich), 100 μM 3,4-dimethoxy-5-methyl-p-benzoquinone (#D9150, Sigma-Aldrich), and 100 μM 2,6-dichlorophenolindophenol sodium salt (DCIP) (#D1878, Sigma-Aldrich) in enzyme buffer (50 mM Tris-HCl pH 8.0, 0.1% Triton X-100, 150 mM KCl). A stock solution of 20 mM DCIP was prepared in enzyme buffer and filtered through Whatman paper just before use. Reactions were performed in a total volume of 100 μL, consisting of 1 μL of compound, 49 μL of enzyme and 50 μL of reaction mixture. Loss in absorbance by chromogen DCIP was measured at 595 nm following a 70 minute incubation at 32° C.

Setting [1] is: MOLM-13, 72 hours, bins ≥10 nM-<100 nM and <10 nM.
The mark [2] stands for this setting: bin ≥1 μM-<10 μM, read-out: IC50 DHODH inhibition activity.
Where [3] appears, read: bins ≥10 nM-<100 nM and <10 nM, read-out: IC50 DHODH inhibition activity.

SMILES strings stand for the structures. pIC50: −log10 of the molar value. Read-outs that look alike come from different tables or passages of the source.

Sequence of recombinant human DHODH (Q02127 whole entry): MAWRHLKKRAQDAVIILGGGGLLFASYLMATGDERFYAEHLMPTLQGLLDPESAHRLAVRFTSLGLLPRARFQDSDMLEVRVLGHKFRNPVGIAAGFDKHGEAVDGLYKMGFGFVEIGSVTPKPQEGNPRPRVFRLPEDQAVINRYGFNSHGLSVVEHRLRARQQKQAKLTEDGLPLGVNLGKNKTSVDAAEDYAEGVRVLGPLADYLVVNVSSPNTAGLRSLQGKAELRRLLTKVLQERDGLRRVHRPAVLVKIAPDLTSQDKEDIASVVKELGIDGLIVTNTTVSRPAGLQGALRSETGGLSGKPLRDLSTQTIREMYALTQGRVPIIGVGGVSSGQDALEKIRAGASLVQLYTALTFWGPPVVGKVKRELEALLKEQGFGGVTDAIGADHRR

By pIC50 is commonly meant −log10 of the IC50, conventionally taken in molar units. On to `COc1cccc(-n2ncc3c2COC[C@H]3NC(=O)c2cc(C)c(C)cn2)c1Cl`, for which the pIC50 in the assay on MOLM-13 cells (setting [1]) is 7.00 to 8.00.
On to `O=C(N[C@H]1COCc2c1cnn2-c1ccccc1F)c1ncn2c1CCCC2` (single isomer, unassigned) [Ex-2], for which the negative logarithm of the IC50 (pIC50) at recombinant human DHODH (setting [2]) was 5.00 to 6.00.
On to `O=C(N[C@H]1COCc2c1cnn2-c1ccccc1F)c1ncc2n1CCCC2` (single isomer, unassigned) [Ex-5], for which, on recombinant human DHODH (setting [2]), the pIC50 is 5.00 to 6.00.
Consider `O=C(N[C@H]1COCc2c1cnn2-c1c(Cl)cccc1Cl)c1ncn2c1CCCC2` (single isomer, unassigned) [Ex-12], for which, in the assay on MOLM-13 cells (setting [1]), the negative-log IC50 (pIC50) was 7.00 to 8.00.
Regarding `Cc1cccc(-n2ncc3c2COC[C@H]3NC(=O)c2ncn3c2CCCC3)c1Cl` [Ex-14, (S)—N-(1-(2-chloro-3-methylphenyl)-1,4,5,7-tetrahydropyrano[3,4-c]pyrazol-4-yl)-5,6,7,8-tetrahydroimidazo[1,5-a]pyridine-1-carboxamide], the negative logarithm of the IC50 (pIC50) on recombinant human DHODH (setting [3]) is above 8.00; with MOLM-13 cells (MOLM-13, 72 h), above 8.00.
Turning to `CCc1c(C(=O)N[C@@H]2COCc3c2cnn3-c2cccc(C)c2Cl)ncn1C` [Ex-15, (S)—N-(1-(2-chloro-3-methylphenyl)-1,4,5,7-tetrahydropyrano[3,4-c]pyrazol-4-yl)-5-ethyl-1-methyl-1H-imidazole-4-carboxamide], the pIC50 at recombinant human DHODH (setting [3]) and with MOLM-13 cells (setting [1]) was above 8.00 throughout.
As to `Cc1cccc(-n2ncc3c2COC[C@H]3NC(=O)c2ncc3n2CCCC3)c1Cl` [Ex-16, (S)—N-(1-(2-chloro-3-methylphenyl)-1,4,5,7-tetrahydropyrano[3,4-c]pyrazol-4-yl)-5,6,7,8-tetrahydroimidazo[1,5-a]pyridine-3-carboxamide], the negative logarithm of the IC50 (pIC50) on recombinant human DHODH (setting [3]) and in the assay with MOLM-13 cells (setting [1]) was above 8.00 throughout.
With `Cc1cccc(-n2ncc3c2COC[C@H]3NC(=O)c2n[nH]c3c2CCCC3)c1Cl` [Ex-17, (S)—N-(1-(2-chloro-3-methylphenyl)-1,4,5,7-tetrahydropyrano[3,4-c]pyrazol-4-yl)-4,5,6,7-tetrahydro-1H-indazole-3-carboxamide], the pIC50 at recombinant human DHODH (setting [3]) and in the assay on MOLM-13 cells (setting [1]) was 7.00 to 8.00 in each case.
With `Cc1cccc(-n2ncc3c2COC[C@H]3NC(=O)c2noc3c2CCCC3)c1Cl` [Ex-18, (S)—N-(1-(2-chloro-3-methylphenyl)-1,4,5,7-tetrahydropyrano[3,4-c]pyrazol-4-yl)-4,5,6,7-tetrahydrobenzo[d]isoxazole-3-carboxamide], the pIC50 on recombinant human DHODH (setting [3]) and in the assay with MOLM-13 cells (setting [1]) was above 8.00 each time.
For the molecule `CCc1c(C(=O)N[C@@H]2COCc3c2cnn3-c2cccc(C)c2Cl)n[nH]c1C` [Ex-19, (S)—N-(1-(2-chloro-3-methylphenyl)-1,4,5,7-tetrahydropyrano[3,4-c]pyrazol-4-yl)-4-ethyl-5-methyl-1H-pyrazole-3-carboxamide], the pIC50 at recombinant human DHODH (setting [3]) and in the assay with MOLM-13 cells (setting [1]) was 7.00 to 8.00 in each case.
For `COc1cccc(-n2ncc3c2COC[C@H]3NC(=O)c2ncn3c2CCCC3)c1Cl` [Ex-21, (S)—N-(1-(2-chloro-3-methoxyphenyl)-1,4,5,7-tetrahydropyrano[3,4-c]pyrazol-4-yl)-5,6,7,8-tetrahydroimidazo[1,5-a]pyridine-1-carboxamide], the pIC50 is above 8.00 on recombinant human DHODH (setting [3]) and above 8.00 in the assay with MOLM-13 cells (MOLM-13, 72 h).
Consider `CCc1c(C(=O)N[C@@H]2COCc3c2cnn3-c2cccc(OC)c2Cl)ncn1C` [Ex-22, (S)—N-(1-(2-chloro-3-methoxyphenyl)-1,4,5,7-tetrahydropyrano[3,4-c]pyrazol-4-yl)-5-ethyl-1-methyl-1H-imidazole-4-carboxamide], for which the negative logarithm of the IC50 (pIC50) on recombinant human DHODH (setting [3]) and in the assay with MOLM-13 cells (setting [1]) was above 8.00 throughout.
Regarding `COc1cccc(-n2ncc3c2COC[C@H]3NC(=O)c2n[nH]c3c2CCCC3)c1Cl` [Ex-24, (S)—N-(1-(2-chloro-3-methoxyphenyl)-1,4,5,7-tetrahydropyrano[3,4-c]pyrazol-4-yl)-4,5,6,7-tetrahydro-1H-indazole-3-carboxamide], the figures for the negative logarithm of the IC50 (pIC50) on recombinant human DHODH (setting [3]) and in the assay on MOLM-13 cells (setting [1]) were 7.00 to 8.00 and above 8.00, respectively.
As to `COc1cccc(-n2ncc3c2COC[C@H]3NC(=O)c2noc3c2CCCC3)c1Cl` [Ex-25, (S)—N-(1-(2-chloro-3-methoxyphenyl)-1,4,5,7-tetrahydropyrano[3,4-c]pyrazol-4-yl)-4,5,6,7-tetrahydrobenzo[d]isoxazole-3-carboxamide], the pIC50 on recombinant human DHODH (setting [3]) is 7.00 to 8.00; in the assay with MOLM-13 cells (setting [1]), above 8.00.
Regarding `CCc1c(C(=O)N[C@@H]2COCc3c2cnn3-c2cccc(OC)c2Cl)n[nH]c1C` [Ex-26, (S)—N-(1-(2-chloro-3-methoxyphenyl)-1,4,5,7-tetrahydropyrano[3,4-c]pyrazol-4-yl)-4-ethyl-5-methyl-1H-pyrazole-3-carboxamide], the pIC50 on recombinant human DHODH (setting [3]) and in the assay on MOLM-13 cells (setting [1]) was above 8.00 throughout.
In the case of `CCc1c(C(=O)N[C@@H]2COCc3c2cnn3-c2c(F)ccc(OC)c2Cl)ncn1C` [Ex-28, (S)—N-(1-(2-chloro-6-fluoro-3-methoxyphenyl)-1,4,5,7-tetrahydropyrano[3,4-c]pyrazol-4-yl)-5-ethyl-1-methyl-1H-imidazole-4-carboxamide], the negative-log IC50 (pIC50) at recombinant human DHODH (setting [3]) and in the assay with MOLM-13 cells (setting [1]) was above 8.00 in each case.
Consider `COc1ccc(F)c(-n2ncc3c2COC[C@H]3NC(=O)c2ncc3n2CCCC3)c1Cl` [Ex-29, (S)—N-(1-(2-chloro-6-fluoro-3-methoxyphenyl)-1,4,5,7-tetrahydropyrano[3,4-c]pyrazol-4-yl)-5,6,7,8-tetrahydroimidazo[1,5-a]pyridine-3-carboxamide], for which the pIC50 on recombinant human DHODH (setting [3]) and with MOLM-13 cells (setting [1]) was above 8.00 each time.
For the molecule `COc1ccc(F)c(-n2ncc3c2COC[C@H]3NC(=O)c2n[nH]c3c2CCCC3)c1Cl` [Ex-30, (S)—N-(1-(2-chloro-6-fluoro-3-methoxyphenyl)-1,4,5,7-tetrahydropyrano[3,4-c]pyrazol-4-yl)-4,5,6,7-tetrahydro-1H-indazole-3-carboxamide], the pIC50 at recombinant human DHODH (setting [3]) is 7.00 to 8.00; in the assay with MOLM-13 cells (setting [1]), above 8.00.
For the molecule `COc1ccc(F)c(-n2ncc3c2COC[C@H]3NC(=O)c2noc3c2CCCC3)c1Cl` [Ex-31, (S)—N-(1-(2-chloro-6-fluoro-3-methoxyphenyl)-1,4,5,7-tetrahydropyrano[3,4-c]pyrazol-4-yl)-4,5,6,7-tetrahydrobenzo[d]isoxazole-3-carboxamide], the pIC50 at recombinant human DHODH (read-out: IC50 DHODH inhibition activity) was above 8.00; with MOLM-13 cells (MOLM-13, 72 h), above 8.00.
As to `CCc1c(C(=O)N[C@@H]2COCc3c2cnn3-c2c(F)ccc(OC)c2Cl)n[nH]c1C` [Ex-32, (S)—N-(1-(2-chloro-6-fluoro-3-methoxyphenyl)-1,4,5,7-tetrahydropyrano[3,4-c]pyrazol-4-yl)-4-ethyl-5-methyl-1H-pyrazole-3-carboxamide], the pIC50 was 7.00 to 8.00 on recombinant human DHODH (setting [3]) and above 8.00 in the assay with MOLM-13 cells (MOLM-13, 72 h).
With `Cc1cnc(C(=O)N[C@@H]2COCc3c2cnn3-c2c(C)cccc2Cl)cc1C` [Ex-40, (S)—N-(1-(2-chloro-6-methylphenyl)-1,4,5,7-tetrahydropyrano[3,4-c]pyrazol-4-yl)-4,5-dimethylpicolinamide], the pIC50 with MOLM-13 cells (setting [1]) was 7.00 to 8.00.
Regarding `CS(=O)(=O)c1cccc(-n2ncc3c2COC[C@H]3NC(=O)c2ncn3c2CCCC3)c1` [Ex-49, (S)—N-(1-(3-(methylsulfonyl)phenyl)-1,4,5,7-tetrahydropyrano[3,4-c]pyrazol-4-yl)-5,6,7,8-tetrahydroimidazo[1,5-a]pyridine-1-carboxamide], on recombinant human DHODH (setting [2]), the pIC50 was 5.00 to 6.00.
Turning to `CN(C)CCOc1cccc(-n2ncc3c2COC[C@H]3NC(=O)c2ncn3c2CCCC3)c1Cl` [Ex-63, (S)—N-(1-(2-chloro-3-(2-(dimethylamino)ethoxy)phenyl)-1,4,5,7-tetrahydropyrano[3,4-c]pyrazol-4-yl)-5,6,7,8-tetrahydroimidazo[1,5-a]pyridine-1-carboxamide], the pIC50 on recombinant human DHODH is 7.00 to 8.00.
For `CNC(=O)COc1cccc(-n2ncc3c2COC[C@H]3NC(=O)c2ncn3c2CCCC3)c1Cl` [Ex-65, (S)—N-(1-(2-chloro-3-(2-(methylamino)-2-oxoethoxy)phenyl)-1,4,5,7-tetrahydropyrano[3,4-c]pyrazol-4-yl)-5,6,7,8-tetrahydroimidazo[1,5-a]pyridine-1-carboxamide], on recombinant human DHODH, the pIC50 is 7.00 to 8.00.
`CC(=O)NCCOc1cccc(-n2ncc3c2COC[C@H]3NC(=O)c2ncn3c2CCCC3)c1Cl` [Ex-66, (S)—N-(1-(3-(2-acetamidoethoxy)-2-chlorophenyl)-1,4,5,7-tetrahydropyrano[3,4-c]pyrazol-4-yl)-5,6,7,8-tetrahydroimidazo[1,5-a]pyridine-1-carboxamide]: the pIC50 on recombinant human DHODH was 7.00 to 8.00.
Take `CN(C)C(=O)c1cccc(-n2ncc3c2COC[C@H]3NC(=O)c2ncn3c2CCCC3)c1Cl` [Ex-70, (S)—N-(1-(2-chloro-3-(dimethylcarbamoyl)phenyl)-1,4,5,7-tetrahydropyrano[3,4-c]pyrazol-4-yl)-5,6,7,8-tetrahydroimidazo[1,5-a]pyridine-1-carboxamide]: in the assay with MOLM-13 cells (MOLM-13, 72 h), the pIC50 was 7.00 to 8.00.
